Assay [1] deals with T1, Sentrin-specific protease 6 (Homo sapiens, UniProt Q9GZR1).
T1 sequence (Q9GZR1 whole entry): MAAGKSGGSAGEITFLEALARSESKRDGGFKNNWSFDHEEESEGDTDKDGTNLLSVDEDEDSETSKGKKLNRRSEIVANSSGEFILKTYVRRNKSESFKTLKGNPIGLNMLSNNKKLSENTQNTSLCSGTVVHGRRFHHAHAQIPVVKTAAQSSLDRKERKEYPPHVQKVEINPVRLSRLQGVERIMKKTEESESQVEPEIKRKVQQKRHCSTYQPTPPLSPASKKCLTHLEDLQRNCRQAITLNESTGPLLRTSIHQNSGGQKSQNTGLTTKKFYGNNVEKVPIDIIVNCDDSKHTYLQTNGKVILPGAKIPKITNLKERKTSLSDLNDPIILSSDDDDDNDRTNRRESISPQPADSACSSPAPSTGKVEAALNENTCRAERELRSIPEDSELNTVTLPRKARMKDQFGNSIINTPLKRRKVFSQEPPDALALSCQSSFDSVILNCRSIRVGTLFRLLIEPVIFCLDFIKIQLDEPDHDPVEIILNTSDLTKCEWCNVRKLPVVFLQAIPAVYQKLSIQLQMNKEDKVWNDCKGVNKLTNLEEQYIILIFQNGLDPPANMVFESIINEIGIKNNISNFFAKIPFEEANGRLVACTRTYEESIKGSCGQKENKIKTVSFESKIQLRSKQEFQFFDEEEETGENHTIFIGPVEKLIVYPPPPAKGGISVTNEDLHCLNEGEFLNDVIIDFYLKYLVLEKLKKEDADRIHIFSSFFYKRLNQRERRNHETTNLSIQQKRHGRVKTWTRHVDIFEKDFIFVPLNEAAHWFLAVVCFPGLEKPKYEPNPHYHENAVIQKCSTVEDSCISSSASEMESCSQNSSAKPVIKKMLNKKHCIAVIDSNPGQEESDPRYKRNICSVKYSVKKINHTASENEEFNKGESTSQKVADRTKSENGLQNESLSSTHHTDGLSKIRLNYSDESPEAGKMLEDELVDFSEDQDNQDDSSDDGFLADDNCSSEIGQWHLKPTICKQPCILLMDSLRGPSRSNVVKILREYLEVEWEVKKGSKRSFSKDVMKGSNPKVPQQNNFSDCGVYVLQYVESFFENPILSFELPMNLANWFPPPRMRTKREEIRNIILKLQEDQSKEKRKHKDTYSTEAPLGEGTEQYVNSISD
It is filed as functional.

For assay [2], the system named is INS1. The experiment in a line: beta cell apoptosis inhibitors, cytokine rescue, dose response, luminescence, retest (AID 449756).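 Note: cell death triggered by IL-1 beta plus TNF-alpha plus IFN-gamma mixture; protective hits raise ATP signal compared with cytokine alone wells.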 It is filed as functional, cell-based. The following applies: Rattus norvegicus.
Assay [3] has as its target Dual specificity mitogen-activated protein kinase kinase 1 (Homo sapiens, UniProt Q02750). Kind of assay: Navigating the Kinome. Panel member name: MAP2K1. It is filed as functional.
The target of assay [4] is Serine/threonine-protein kinase PAK 4 (Homo sapiens, UniProt O96013). It is filed as functional.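 Note: value obtained within a kinome profiling panel in which PAK4 was one of the panel members.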
Assay [5] concerns the target Tyrosine-protein kinase Lck (Homo sapiens, UniProt P06239). It is filed as functional.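 Note: lck was assayed as one member of a kinase panel.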
Assay [6] addresses Serine/threonine-protein kinase D3 (Homo sapiens, UniProt O94806). It is filed as functional.
In assay [7] the target is Tyrosine-protein kinase receptor TYRO3 (Homo sapiens, UniProt Q06418). It is filed as functional.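 Note: TYRO3 value obtained as one member of a kinome-wide profiling panel.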
Assay [8] has as its target Leukocyte tyrosine kinase receptor (Homo sapiens, UniProt P29376). The experiment in a line: Navigating the Kinome. Panel member name: LTK. It is filed as functional.
For assay [9], the target named is Dual specificity tyrosine-phosphorylation-regulated kinase 1B (Homo sapiens, UniProt Q9Y463). Kind of assay: Navigating the Kinome. Panel member name: DYRK1B. It is filed as functional.
The target in assay [10] is Cyclin-dependent kinase 7 (Homo sapiens, UniProt P50613). It is filed as functional.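 Note: value comes from a kinome-wide kinase profiling panel in which CDK7 is one member.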
In assay [11] the target is Tyrosine-protein kinase JAK2 (Homo sapiens, UniProt O60674). It is filed as functional.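 Note: JAK2 tested as one member of a kinase panel.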
Assay [12] deals with G protein-coupled receptor kinase 5 (Homo sapiens, UniProt P34947). The experiment in a line: Navigating the Kinome. Panel member name: GPRK5. It is filed as functional.
The target in assay [13] is Dual specificity protein kinase CLK2 (Homo sapiens, UniProt P49760). It is filed as functional.
For assay [14], the target named is T2, Apoptotic protease-activating factor 1 (Homo sapiens, UniProt O14727).
T2 sequence (O14727 whole entry): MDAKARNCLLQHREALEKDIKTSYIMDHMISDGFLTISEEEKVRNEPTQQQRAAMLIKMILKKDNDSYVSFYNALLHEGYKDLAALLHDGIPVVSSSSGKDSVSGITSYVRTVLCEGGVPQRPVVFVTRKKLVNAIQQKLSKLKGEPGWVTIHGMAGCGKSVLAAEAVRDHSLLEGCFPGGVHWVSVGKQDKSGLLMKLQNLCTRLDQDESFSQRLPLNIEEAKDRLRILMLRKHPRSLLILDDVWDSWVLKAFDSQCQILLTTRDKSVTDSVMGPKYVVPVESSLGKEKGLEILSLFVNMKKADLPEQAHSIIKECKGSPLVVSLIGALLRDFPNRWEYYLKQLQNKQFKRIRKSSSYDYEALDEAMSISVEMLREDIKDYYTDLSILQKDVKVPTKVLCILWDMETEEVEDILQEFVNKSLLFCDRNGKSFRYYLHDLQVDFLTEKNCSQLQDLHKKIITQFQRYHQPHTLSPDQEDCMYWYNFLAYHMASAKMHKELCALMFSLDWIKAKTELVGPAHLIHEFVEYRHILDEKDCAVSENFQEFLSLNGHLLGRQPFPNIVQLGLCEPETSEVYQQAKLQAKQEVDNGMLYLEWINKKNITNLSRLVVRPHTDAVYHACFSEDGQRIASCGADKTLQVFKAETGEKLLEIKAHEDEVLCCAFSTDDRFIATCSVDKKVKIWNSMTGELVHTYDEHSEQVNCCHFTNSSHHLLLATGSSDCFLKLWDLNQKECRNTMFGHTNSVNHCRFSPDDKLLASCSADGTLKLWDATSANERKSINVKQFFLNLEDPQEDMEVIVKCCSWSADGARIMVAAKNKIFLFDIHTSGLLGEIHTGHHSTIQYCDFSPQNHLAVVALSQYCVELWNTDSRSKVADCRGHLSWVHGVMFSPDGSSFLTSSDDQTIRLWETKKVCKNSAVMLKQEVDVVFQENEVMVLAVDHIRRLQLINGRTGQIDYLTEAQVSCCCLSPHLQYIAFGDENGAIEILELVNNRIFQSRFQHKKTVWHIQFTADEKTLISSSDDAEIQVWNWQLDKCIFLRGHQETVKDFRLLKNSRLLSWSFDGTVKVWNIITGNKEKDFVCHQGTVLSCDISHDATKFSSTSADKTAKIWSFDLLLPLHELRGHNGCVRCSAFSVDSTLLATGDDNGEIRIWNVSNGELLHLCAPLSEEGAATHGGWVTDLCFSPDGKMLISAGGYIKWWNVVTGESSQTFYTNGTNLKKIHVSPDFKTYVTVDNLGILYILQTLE
It is filed as functional.

Calls of active or inactive are those of the source.

This note sets out measurements from ChEMBL document CHEMBL1201862, “PubChem BioAssay data set” (2004).

By IC50 is commonly meant the midpoint of a concentration-inhibition curve. The term AC50 denotes the midpoint of the concentration-response curve, whichever way the signal moves. A word on the Ki: it is the dissociation constant of the complex between target and ligand, obtained from inhibition or displacement.

Dual specificity mitogen-activated protein kinase kinase 1, sequence (Q02750 whole entry): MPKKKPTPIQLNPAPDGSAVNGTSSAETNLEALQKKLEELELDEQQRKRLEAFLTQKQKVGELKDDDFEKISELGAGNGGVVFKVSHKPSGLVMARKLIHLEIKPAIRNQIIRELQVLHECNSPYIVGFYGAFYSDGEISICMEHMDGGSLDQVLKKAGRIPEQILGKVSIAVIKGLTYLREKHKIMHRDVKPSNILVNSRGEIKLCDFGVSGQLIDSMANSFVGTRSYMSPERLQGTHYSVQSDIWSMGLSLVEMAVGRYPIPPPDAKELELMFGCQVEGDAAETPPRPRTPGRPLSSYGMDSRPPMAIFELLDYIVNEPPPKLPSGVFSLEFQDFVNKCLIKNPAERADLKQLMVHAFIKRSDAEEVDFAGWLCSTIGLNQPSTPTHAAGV
Tyrosine-protein kinase Lck, sequence (P06239 whole entry): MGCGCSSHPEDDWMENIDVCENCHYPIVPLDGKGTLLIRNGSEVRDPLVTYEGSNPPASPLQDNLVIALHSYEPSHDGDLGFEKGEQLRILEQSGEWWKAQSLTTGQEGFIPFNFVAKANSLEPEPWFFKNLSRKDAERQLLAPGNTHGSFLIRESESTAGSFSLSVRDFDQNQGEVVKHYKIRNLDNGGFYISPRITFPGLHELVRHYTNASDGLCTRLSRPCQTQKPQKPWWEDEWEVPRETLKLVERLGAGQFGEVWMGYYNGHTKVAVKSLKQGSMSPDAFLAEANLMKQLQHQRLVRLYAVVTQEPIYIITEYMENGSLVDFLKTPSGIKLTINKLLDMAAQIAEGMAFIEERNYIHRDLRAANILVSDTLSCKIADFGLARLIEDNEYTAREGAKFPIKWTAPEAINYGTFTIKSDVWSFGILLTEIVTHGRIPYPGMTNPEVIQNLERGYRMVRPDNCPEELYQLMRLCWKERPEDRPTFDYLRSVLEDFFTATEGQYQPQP
Leukocyte tyrosine kinase receptor, sequence (P29376 whole entry): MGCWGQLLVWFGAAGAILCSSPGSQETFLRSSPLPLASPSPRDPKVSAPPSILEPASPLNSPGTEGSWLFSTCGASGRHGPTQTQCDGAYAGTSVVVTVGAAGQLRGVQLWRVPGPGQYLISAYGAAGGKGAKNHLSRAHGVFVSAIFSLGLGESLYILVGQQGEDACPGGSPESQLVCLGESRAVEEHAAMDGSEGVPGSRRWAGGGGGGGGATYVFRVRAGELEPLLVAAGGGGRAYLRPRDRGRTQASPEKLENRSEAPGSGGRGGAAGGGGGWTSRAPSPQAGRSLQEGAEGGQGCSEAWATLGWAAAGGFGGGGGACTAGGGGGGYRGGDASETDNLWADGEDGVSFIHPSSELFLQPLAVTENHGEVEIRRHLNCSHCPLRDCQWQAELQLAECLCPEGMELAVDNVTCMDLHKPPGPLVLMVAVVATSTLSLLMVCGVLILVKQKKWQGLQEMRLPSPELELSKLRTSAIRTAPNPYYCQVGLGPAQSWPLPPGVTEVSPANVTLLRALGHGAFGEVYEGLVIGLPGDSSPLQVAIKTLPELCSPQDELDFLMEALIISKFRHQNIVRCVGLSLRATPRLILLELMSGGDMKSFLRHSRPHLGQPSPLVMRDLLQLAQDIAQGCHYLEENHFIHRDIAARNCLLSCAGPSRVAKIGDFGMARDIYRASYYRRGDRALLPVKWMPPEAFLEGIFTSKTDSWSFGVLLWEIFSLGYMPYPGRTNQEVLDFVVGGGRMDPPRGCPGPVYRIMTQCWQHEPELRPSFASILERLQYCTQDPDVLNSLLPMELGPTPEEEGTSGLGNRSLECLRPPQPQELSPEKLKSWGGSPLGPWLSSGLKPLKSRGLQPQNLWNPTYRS
Dual specificity protein kinase CLK2, sequence (P49760 whole entry): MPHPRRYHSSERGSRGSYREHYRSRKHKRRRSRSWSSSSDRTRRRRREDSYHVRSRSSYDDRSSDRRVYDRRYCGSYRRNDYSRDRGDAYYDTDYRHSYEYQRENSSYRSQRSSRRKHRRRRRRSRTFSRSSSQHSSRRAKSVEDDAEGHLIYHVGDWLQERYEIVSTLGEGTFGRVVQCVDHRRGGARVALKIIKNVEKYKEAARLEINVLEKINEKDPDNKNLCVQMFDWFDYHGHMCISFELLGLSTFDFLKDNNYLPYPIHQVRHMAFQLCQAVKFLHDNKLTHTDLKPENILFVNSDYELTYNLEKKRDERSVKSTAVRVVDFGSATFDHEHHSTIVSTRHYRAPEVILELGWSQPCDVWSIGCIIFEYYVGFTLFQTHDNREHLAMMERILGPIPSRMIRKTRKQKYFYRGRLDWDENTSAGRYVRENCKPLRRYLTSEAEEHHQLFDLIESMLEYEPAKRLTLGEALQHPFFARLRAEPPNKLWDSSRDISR
Tyrosine-protein kinase receptor TYRO3, sequence (Q06418 whole entry): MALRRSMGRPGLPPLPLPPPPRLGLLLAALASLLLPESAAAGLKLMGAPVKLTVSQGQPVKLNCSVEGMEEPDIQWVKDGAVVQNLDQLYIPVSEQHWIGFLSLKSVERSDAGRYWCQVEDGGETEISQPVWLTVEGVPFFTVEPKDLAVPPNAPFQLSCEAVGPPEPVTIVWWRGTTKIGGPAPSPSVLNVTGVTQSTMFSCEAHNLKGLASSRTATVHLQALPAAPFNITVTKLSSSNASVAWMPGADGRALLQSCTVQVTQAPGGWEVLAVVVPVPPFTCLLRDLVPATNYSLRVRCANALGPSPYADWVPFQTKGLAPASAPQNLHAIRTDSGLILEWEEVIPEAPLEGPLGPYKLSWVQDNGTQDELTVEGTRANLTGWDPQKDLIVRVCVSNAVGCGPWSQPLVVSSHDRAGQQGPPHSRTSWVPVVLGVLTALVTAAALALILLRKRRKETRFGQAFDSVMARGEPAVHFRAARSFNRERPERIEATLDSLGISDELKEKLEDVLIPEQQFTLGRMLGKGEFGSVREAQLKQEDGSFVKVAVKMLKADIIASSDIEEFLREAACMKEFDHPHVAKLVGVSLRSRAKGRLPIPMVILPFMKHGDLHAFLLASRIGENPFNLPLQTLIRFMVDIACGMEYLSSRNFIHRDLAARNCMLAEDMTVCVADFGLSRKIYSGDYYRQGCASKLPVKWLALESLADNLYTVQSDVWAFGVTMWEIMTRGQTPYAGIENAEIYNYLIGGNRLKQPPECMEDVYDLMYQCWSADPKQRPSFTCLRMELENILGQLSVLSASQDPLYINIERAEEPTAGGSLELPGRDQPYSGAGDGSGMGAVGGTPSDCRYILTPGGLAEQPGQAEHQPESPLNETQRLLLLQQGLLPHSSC
Tyrosine-protein kinase JAK2, sequence (O60674 whole entry): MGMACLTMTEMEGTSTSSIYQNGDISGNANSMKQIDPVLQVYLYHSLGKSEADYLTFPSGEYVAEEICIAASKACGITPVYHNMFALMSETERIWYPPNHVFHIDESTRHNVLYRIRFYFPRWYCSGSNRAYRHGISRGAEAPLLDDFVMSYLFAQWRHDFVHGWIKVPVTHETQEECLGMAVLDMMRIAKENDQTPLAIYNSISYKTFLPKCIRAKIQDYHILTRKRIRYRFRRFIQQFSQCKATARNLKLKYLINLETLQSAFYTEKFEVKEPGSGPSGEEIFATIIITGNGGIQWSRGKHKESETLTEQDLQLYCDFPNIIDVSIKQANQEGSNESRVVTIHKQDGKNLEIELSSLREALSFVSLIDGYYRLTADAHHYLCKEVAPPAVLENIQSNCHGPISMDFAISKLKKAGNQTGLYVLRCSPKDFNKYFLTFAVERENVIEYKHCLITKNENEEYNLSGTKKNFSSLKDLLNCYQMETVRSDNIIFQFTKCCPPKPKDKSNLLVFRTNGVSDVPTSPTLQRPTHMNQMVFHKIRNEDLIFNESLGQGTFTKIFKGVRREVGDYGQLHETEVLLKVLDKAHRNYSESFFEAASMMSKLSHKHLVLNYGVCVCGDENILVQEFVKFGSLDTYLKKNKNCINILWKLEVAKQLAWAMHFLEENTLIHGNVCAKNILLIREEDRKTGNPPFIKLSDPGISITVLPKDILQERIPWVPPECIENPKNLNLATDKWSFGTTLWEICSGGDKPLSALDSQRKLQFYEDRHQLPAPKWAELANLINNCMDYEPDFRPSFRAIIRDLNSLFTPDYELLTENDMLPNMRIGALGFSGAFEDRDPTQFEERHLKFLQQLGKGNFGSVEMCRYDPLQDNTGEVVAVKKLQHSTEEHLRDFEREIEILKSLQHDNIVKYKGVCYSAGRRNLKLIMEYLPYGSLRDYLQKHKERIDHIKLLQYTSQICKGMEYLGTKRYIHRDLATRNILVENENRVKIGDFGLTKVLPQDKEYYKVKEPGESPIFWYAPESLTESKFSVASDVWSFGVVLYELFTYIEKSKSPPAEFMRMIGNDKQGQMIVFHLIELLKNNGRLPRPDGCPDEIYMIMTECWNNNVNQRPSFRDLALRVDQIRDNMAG
Serine/threonine-protein kinase PAK 4, sequence (O96013 whole entry): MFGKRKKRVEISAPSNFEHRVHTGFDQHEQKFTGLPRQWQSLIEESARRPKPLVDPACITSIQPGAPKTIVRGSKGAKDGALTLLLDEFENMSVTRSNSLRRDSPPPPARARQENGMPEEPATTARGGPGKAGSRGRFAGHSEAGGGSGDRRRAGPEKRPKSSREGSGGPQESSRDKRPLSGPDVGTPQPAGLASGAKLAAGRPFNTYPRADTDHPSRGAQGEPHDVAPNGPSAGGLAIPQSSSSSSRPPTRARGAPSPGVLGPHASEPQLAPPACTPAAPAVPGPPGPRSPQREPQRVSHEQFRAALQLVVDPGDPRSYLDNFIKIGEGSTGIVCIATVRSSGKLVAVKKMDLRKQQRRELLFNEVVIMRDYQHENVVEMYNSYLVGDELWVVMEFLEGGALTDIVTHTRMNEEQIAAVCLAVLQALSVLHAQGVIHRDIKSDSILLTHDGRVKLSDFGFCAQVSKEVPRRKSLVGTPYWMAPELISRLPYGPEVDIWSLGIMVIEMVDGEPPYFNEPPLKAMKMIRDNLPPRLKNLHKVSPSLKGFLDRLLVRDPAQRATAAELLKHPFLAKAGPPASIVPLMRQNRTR

As to `O=C(N/N=C/c1c(O)ccc2ccccc12)c1[nH]ncc1Br`, in assay [1], the IC50 was > 100 µM (inactive). The AC50 in [2] was 0.558 µM (active).

As to `O=C(Nc1cc(-c2c[nH]c3ncccc23)cc(Cl)n1)c1ccccc1`, the Ki was > 3.16 µM (inactive) in assay [3]; > 5.01 µM (inactive) in [4]; > 6.31 µM (inactive) in assay [5]; > 3.98 µM (inactive) in [6]; > 3.16 µM (inactive) in assay [7]; > 2.51 µM (inactive) in assay [8]. The inhibition constant (Ki) was 0.316 µM (active) in [9]; > 3.98 µM (inactive) in [10]; > 2.51 µM (inactive) in assay [11]; > 3.98 µM (inactive) in assay [12]; > 3.16 µM (inactive) in [13].

`Nc1c(-c2ccc(NC(=O)Nc3cccc(C(F)(F)F)c3)cc2)cnc2c(-c3ccc4c(c3)OCO4)cnn12`: the Ki in [3] is > 3.16 µM (inactive); in assay [4], > 5.01 µM (inactive); in assay [5] it was 0.0316 µM (active); in assay [6] it was > 3.98 µM (inactive); in assay [7], 1.26 µM (active); in assay [8], > 2.51 µM (inactive). In addition, the Ki in assay [9] was > 2.51 µM (inactive); in assay [10], > 3.98 µM (inactive); in assay [11], > 2.51 µM (inactive); in assay [12] it was > 3.98 µM (inactive); in assay [13], > 3.98 µM (inactive).

`CNC[C@H](Cc1ccccc1)NC[C@@H](Cc1cccc2ccccc12)NCCc1ccc(C)cc1`: the AC50 in assay [2] was 7.38 µM (active).

Consider `O=C(Cc1ccccc1Cl)NC1(O)C(=O)c2ccccc2C1=O`, for which, in assay [14], the half-maximal inhibitory concentration (IC50) was 12 µM (active).

Regarding `Nc1nnc2c(n1)CCCC2`, the 50% inhibitory concentration (IC50) was 7.19 µM (active) in assay [14] and 7.37 µM (active) in assay [1].
